Results on three molecules are retold here after publication PMC11997881, “Comprehensive Characterization of Bruton’s Tyrosine Kinase Inhibitor Specificity, Potency, and Biological Effects: Insights into Covalent and Noncovalent Mechanistic Signatures” (ACS Pharmacology & Translational Science, 2025).

One data set concerns the target T1, TEC (Homo sapiens, UniProt P42680).
T1 sequence (P42680 1-631): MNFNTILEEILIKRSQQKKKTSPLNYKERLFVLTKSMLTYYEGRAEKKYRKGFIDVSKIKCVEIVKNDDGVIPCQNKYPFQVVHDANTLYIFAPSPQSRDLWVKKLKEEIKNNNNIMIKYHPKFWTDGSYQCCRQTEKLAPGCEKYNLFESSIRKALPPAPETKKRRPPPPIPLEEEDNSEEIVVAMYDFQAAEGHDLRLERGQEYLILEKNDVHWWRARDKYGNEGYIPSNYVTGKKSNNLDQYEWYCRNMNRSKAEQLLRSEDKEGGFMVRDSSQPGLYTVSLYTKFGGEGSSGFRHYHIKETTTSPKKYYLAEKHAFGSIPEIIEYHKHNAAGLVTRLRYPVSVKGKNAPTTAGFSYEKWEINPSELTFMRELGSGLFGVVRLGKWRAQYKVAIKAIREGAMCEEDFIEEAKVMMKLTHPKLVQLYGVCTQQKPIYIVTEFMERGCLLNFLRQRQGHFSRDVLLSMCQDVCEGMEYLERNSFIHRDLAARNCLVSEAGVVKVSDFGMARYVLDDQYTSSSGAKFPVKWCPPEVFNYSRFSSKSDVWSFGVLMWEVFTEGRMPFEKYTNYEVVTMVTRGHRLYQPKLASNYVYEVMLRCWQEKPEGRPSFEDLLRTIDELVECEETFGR
Nature of the data set: scanMAX binding POC, TEC. The following applies: 1 μM. From the text:
(§1) Comprehensive Characterization of Bruton’s Tyrosine Kinase Inhibitor Specificity, Potency, and
(§2) Biological Effects: Insights into Covalent and Non-Covalent Mechanistic Signatures
(§3) Antonia C. Darragh1, Andrew M. Hanna1, Justin H. Lipner2, Alastair J. King2, Nicole B. Servant1, Mirza Jahic1*
(§4) *To whom correspondence should be addressed: Mirza Jahic, e-mail address: Mirza.Jahic@discovery.eurofinsus.com
(§5) Supporting Table S1. Comparison of BTK inhibitor specificity to TEC family members. TEC family members are
(§6) Burton’s tyrosine kinase (BTK), tyrosine kinase expressed in hepatocellular carcinoma (TEC), bone marrow-
(§7) expressed kinase (BMX/ETK), and T cell-expressed kinase (TXK/RLK), and interleukin-2-inducible T cell kinase
(§8) A zero POC signifies that the compound

The target of the next data set is T2, TXK (Homo sapiens, UniProt P42681).
T2 sequence (P42681 1-527): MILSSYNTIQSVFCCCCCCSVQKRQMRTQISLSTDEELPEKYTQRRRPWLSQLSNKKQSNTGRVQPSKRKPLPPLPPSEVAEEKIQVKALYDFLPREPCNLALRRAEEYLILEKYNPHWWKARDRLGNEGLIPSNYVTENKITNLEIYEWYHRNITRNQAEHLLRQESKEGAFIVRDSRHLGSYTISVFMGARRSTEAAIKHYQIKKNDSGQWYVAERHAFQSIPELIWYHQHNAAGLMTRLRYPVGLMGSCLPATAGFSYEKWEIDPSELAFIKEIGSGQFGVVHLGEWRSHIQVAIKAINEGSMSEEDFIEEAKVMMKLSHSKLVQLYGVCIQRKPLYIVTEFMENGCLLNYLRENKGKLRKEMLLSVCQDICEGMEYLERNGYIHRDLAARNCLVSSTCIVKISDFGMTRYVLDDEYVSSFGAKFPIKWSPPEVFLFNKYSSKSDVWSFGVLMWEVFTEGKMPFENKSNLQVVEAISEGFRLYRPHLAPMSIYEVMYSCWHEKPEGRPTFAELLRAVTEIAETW
As to the kind of experiment: scanMAX binding POC, TXK. The following applies: 1 μM.
Description: as §1, §2, §3, §4, §5, §6, §7, §8

For the next data set, the target named is T3, ITK (Homo sapiens, UniProt Q08881).
T3 sequence (Q08881 1-620): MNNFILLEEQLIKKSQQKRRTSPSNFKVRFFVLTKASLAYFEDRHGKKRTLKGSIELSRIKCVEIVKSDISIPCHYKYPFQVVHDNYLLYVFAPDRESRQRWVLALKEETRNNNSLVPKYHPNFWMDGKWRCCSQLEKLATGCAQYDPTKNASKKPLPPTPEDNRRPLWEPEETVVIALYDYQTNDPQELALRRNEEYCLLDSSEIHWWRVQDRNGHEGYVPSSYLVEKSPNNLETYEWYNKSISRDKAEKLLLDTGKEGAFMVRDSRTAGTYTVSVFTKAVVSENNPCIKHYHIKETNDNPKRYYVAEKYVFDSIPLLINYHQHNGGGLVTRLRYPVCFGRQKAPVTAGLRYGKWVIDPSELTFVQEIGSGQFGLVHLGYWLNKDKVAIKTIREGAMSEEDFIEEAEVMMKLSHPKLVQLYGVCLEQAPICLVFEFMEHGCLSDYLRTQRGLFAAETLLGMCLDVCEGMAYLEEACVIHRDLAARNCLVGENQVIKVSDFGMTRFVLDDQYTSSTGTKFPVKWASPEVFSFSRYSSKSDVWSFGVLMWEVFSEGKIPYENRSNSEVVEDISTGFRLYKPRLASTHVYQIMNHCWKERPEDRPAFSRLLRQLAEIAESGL
Nature of the data set: scanMAX binding POC, ITK. The following applies: 1 μM.
Description: as §1, §2, §3, §4, §5, §6, §7, §8

Another data set has as its target BLK (Homo sapiens, UniProt P51451). Nature of the data set: scanMAX binding POC, BLK. The settings on record: 1 μM.
For another data set, the target named is EGFR (Homo sapiens, UniProt P00533). As to the kind of experiment: scanMAX binding POC, EGFR. The settings on record: 1 μM.
Another data set addresses ERBB2 (Homo sapiens, UniProt P04626). As to the kind of experiment: scanMAX binding POC, ERBB2. The following applies: 1 μM.
The next data set has as its target ERBB3 (Homo sapiens, UniProt P21860). As to the kind of experiment: scanMAX binding POC, ERBB3. The following applies: 1 μM.
A further data set addresses ERBB4 (Homo sapiens, UniProt Q15303). As to the kind of experiment: scanMAX binding POC, ERBB4. The following applies: 1 μM.
For data set [1], the target named is T4, JAK3 (JH1 catalytic domain) (Homo sapiens, UniProt P52333).
T4 construct: The JAK3 POC is for its JH1 catalytic domain
Nature of the data set: scanMAX binding POC, JAK3. The following applies: 1 μM.

The target in the next data set is T5, MKK7 (Homo sapiens, UniProt O14733).
T5 sequence (O14733 1-419): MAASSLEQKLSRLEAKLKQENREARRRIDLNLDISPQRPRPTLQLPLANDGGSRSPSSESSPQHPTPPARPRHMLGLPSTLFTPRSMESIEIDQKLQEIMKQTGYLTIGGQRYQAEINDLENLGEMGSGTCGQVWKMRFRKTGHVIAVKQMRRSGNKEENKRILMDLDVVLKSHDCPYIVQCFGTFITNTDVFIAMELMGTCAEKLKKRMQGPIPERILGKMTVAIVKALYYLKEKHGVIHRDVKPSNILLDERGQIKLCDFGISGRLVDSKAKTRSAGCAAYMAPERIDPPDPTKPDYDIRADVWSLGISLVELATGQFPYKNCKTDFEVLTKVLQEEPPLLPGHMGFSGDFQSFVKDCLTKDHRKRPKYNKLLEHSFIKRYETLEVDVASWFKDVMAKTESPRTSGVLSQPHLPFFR
Nature of the data set: scanMAX binding POC, MKK7. The following applies: 1 μM.

For data set [2], the system named is relapsed/refractory (R/R) CLL and small lymphocytic lymphoma (SLL). Set-up: method as in NCT03734016. The settings on record: cited from earlier work.
The next data set has as its system BTK. The following applies: cited from earlier work.
In a further data set the target is JNK1 (MAPK8) (Homo sapiens, UniProt P45983). Nature of the data set: scanMAX binding POC, JNK1. The following applies: 1 μM.
A further data set has as its target JNK2 (MAPK9) (Homo sapiens, UniProt P45984). Nature of the data set: scanMAX binding POC, JNK2. The settings on record: 1 μM.
A further data set concerns the target JNK3 (MAPK10) (Homo sapiens, UniProt P53779). As to the kind of experiment: scanMAX binding POC, JNK3. The following applies: 1 μM.
Another data set deals with T6, BMX (Homo sapiens, UniProt P51813).
T6 sequence (P51813 1-675): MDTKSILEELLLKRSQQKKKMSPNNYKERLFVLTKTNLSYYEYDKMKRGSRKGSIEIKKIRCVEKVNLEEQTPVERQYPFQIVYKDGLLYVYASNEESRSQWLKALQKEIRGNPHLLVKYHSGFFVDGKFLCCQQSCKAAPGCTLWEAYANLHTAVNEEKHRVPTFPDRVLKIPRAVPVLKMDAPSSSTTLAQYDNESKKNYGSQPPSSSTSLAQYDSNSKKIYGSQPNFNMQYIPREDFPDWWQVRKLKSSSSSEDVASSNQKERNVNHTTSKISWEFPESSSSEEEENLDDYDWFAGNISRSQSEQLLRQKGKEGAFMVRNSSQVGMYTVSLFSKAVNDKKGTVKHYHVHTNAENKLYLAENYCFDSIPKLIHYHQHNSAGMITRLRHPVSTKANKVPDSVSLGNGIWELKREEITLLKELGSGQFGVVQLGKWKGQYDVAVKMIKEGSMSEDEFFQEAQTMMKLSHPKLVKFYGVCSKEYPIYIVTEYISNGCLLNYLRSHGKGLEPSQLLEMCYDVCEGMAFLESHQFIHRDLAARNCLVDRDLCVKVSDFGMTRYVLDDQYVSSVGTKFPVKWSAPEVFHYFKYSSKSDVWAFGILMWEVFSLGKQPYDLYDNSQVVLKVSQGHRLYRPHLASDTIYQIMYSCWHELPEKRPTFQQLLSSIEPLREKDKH
Nature of the data set: scanMAX binding POC, BMX. The following applies: 1 μM.
Description: as §1, §2, §3, §4, §5, §6, §7, §8

The test system of the next data set is patients with R/R MCL. Set-up: method as in NCT03494179. The settings on record: ref NCT03494179; cited from earlier work.
The next data set has as its system BTK C481S. The following applies: read-out: average published IC50 for BTK C481S; cited from earlier work.

The structures appear in SMILES notation.

Chain of ERBB2 (P04626 23-1255): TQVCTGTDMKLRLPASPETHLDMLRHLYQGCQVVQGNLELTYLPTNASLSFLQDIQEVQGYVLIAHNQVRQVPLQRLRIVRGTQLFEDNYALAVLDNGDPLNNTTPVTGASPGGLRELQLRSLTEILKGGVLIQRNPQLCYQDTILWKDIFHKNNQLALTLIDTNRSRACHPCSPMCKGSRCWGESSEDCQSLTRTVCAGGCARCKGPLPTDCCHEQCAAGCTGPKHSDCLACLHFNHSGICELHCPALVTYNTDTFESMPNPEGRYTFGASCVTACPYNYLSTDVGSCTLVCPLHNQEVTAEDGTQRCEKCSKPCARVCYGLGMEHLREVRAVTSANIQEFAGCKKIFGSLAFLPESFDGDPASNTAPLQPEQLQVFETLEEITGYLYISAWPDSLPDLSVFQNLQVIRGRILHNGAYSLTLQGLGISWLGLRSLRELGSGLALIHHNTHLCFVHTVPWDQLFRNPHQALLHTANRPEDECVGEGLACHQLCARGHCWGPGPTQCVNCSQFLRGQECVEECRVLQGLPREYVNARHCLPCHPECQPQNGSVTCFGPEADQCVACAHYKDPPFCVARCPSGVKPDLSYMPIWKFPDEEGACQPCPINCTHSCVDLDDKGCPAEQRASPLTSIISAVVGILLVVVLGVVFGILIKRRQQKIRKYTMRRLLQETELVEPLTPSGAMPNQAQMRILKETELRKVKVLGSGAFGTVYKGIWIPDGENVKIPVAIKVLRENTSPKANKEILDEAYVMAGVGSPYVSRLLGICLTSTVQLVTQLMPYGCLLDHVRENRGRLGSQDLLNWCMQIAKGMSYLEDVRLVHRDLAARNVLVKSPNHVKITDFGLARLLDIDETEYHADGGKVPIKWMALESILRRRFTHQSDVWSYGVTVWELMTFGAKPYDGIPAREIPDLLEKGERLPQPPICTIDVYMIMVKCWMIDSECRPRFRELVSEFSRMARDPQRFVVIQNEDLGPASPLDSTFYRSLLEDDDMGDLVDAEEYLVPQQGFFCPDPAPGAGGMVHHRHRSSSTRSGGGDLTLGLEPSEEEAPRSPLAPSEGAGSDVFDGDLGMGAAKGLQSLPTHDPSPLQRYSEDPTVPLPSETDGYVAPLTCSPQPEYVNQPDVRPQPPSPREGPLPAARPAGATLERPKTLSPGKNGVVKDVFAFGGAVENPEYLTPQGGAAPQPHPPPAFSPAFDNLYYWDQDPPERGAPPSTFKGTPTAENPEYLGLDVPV
Chain of JNK2 (MAPK9) (P45984 whole entry): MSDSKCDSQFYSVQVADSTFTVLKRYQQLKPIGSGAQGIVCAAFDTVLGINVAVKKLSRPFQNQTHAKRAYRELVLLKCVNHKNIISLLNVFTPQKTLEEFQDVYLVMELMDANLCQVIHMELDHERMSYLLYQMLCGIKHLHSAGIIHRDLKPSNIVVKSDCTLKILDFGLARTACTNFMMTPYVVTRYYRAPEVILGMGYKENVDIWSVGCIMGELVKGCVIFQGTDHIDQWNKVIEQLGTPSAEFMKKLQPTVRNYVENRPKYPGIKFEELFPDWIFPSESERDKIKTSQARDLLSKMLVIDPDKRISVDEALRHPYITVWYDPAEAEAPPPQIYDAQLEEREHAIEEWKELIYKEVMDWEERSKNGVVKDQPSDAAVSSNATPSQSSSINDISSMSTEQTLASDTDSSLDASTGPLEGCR
Chain of JNK1 (MAPK8) (P45983 whole entry): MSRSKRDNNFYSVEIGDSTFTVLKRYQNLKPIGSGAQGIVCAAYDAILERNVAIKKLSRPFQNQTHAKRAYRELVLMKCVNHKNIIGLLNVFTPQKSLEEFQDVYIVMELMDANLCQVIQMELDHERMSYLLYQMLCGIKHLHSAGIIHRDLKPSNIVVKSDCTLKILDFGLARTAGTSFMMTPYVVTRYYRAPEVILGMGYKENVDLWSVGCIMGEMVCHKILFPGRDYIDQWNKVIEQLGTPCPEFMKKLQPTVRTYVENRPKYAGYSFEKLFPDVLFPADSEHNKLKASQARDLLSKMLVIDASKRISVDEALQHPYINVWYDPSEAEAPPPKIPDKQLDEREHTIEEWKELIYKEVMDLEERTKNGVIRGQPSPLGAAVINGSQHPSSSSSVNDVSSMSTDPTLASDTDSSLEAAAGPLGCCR
Chain of ERBB3 (P21860 20-1342): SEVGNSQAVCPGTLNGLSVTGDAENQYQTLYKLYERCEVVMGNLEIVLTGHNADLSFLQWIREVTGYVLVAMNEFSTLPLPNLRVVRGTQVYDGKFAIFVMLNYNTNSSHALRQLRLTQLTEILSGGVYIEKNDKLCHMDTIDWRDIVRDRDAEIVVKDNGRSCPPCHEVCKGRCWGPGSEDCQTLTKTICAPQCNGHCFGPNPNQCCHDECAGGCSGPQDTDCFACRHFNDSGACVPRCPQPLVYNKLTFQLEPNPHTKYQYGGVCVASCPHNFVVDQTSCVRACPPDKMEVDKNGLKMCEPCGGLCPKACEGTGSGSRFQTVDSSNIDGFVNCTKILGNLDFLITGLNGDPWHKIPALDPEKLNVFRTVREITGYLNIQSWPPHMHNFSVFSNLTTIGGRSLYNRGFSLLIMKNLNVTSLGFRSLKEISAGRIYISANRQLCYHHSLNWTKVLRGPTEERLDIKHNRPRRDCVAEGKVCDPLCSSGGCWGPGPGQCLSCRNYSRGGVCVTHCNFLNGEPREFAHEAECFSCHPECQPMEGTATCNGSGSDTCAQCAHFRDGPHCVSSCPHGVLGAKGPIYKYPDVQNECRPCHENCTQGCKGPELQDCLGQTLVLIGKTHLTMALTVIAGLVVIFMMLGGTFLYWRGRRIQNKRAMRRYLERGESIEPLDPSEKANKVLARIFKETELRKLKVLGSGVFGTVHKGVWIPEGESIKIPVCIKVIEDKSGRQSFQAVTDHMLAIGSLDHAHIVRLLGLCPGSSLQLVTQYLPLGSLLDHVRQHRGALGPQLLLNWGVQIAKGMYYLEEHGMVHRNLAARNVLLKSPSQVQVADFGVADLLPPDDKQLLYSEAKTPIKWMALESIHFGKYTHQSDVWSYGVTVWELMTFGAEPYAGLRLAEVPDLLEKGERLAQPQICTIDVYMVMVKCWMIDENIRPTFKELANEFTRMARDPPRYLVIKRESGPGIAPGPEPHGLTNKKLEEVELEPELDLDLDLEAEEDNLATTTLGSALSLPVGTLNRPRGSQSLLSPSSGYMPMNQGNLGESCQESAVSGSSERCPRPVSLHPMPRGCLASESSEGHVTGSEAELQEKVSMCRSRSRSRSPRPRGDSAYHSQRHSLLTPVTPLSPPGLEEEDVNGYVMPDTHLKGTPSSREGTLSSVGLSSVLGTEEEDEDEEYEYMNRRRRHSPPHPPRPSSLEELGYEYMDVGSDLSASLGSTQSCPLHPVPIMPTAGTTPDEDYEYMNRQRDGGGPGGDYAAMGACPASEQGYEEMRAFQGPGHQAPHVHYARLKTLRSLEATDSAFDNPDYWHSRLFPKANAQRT
Chain of ERBB4 (Q15303 26-1308): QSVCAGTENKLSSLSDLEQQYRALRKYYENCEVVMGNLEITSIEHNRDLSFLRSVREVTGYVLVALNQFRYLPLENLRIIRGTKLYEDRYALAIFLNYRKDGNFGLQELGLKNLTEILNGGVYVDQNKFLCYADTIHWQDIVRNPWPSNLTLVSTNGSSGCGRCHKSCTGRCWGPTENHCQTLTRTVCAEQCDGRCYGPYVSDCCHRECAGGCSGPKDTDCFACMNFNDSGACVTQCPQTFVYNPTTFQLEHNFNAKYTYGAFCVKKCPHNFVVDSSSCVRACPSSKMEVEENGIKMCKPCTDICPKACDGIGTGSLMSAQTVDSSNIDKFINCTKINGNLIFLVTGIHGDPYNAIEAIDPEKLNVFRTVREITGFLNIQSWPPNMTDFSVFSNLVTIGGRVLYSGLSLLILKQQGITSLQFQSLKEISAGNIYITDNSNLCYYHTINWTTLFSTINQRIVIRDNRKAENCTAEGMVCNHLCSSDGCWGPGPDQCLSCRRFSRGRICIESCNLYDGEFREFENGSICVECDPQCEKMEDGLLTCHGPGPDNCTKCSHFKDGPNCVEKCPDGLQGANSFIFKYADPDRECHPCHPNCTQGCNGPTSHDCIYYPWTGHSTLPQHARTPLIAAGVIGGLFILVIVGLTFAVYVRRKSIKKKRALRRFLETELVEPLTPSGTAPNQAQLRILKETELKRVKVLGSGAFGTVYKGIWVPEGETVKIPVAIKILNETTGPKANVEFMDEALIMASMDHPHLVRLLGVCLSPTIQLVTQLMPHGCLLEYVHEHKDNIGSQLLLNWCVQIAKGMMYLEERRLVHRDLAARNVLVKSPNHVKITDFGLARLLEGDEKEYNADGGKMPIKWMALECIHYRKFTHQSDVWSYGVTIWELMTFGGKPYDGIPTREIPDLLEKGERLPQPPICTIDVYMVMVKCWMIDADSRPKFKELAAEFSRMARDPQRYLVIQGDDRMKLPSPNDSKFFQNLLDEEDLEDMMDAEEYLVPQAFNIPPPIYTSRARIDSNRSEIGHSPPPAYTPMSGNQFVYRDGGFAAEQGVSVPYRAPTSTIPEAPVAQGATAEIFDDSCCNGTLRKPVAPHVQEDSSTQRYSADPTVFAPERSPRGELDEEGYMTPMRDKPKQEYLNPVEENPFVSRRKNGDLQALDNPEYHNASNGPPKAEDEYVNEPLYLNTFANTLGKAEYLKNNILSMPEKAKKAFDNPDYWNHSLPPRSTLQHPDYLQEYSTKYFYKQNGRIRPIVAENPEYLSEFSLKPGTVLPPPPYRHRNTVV
T4 sequence (P52333 822-1111 limits assumed): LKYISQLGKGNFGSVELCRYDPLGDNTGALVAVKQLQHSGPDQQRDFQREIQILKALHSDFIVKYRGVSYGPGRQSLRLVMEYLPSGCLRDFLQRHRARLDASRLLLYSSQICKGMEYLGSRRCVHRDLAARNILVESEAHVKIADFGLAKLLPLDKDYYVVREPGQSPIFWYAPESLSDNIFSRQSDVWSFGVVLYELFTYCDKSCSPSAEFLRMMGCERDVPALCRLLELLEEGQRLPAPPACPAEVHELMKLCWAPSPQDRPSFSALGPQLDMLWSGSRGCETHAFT
Description for JNK1 (MAPK8): (§9) The compounds were diluted directly into the assays such that the final concentration of DMSO was 0.9%. No enzyme purification steps were performed on the protein extracts before adding them to the reaction mixture, and the protein extracts were diluted 10,000-fold in the final reaction mixture (the final DNA-tagged enzyme concentration was less than 0.1 nM). Binding assay mixtures were incubated at 25 °C with shaking for 1 h. […] The concentration of wild-type or mutant BTK in the eluates was then determined using quantitative PCR. […] Each assay’s affinity ligand concentration on the magnetic beads has been optimized to ensure that the true thermodynamic Kd values for competitor molecules were measured, as described in detail previously99.
(§10) Comparison of BTK inhibitor specificity to c-Jun N-terminal kinases (JNK1-3/MAPKP8-10).
(§11) a The percent of control (POC) is the percent of kinase that was competed off its control ligand relative to the positive and negative controls at the screening concentration56. A zero POC signifies that the compound
Description for JNK2 (MAPK9): as §9, §10, §11
Description for JNK3 (MAPK10): as §9, §10, §11

On to `C=CC(=O)N1CCC([C@@H]2CCNc3c(C(N)=O)c(-c4ccc(Oc5ccccc5)cc4)nn32)CC1` [Zanubrutinib], for which, on TEC, the “TEC binding POC” value is on record as 8.7% of control. Also, on TXK, the “TXK binding POC” value was 2.2% of control. Also, on ITK, the “ITK binding POC” value is given as 74% of control. For the same molecule, on BLK, the “BLK binding POC” value is on record as 0.3% of control. Moreover, the “EGFR binding POC” value at EGFR is recorded as 0% of control. Moreover, the “ERBB2 binding POC” value at ERBB2 is given as 7.3% of control. Moreover, the “ERBB3 binding POC” value at ERBB3 is 23% of control. Moreover, the “ERBB4 binding POC” value at ERBB4 was 0.75% of control. Further, in data set [1], the “JAK3 binding POC” value is 20% of control. Further, the “MKK7 binding POC” value at MKK7 was 55% of control. Further, the “overall response rate (ORR, partial and complete responses)” value in data set [2] (after 15 months, P < 0.001, ref NCT03734016) is reported as 78.3%. In addition, the cardiovascular adverse events in data set [2] (two-sided P = 0.001, ref NCT03734016) is 2.5%. Moreover, the IC50 (usually the concentration that gives 50% inhibition) with BTK is […]. On JNK1 (MAPK8), the “JNK1 (MAPK8) POC” value is recorded as 99% of control. Further, the “JNK2 (MAPK9) POC” value at JNK2 (MAPK9) is listed as 95% of control. Besides, at JNK3 (MAPK10), the “JNK3 (MAPK10) POC” value was 93% of control.

With `C=CC(=O)N1CCC(c2ccc(C(N)=O)c(-c3ccc(Oc4ccccc4)cc3)n2)CC1` [Orelabrutinib], on BMX, the “BMX binding POC” value is listed as 27% of control. In addition, at TXK, the “TXK binding POC” value is 34% of control. Besides, the “ITK binding POC” value on ITK was 100% of control. The “BLK binding POC” value on BLK is 52% of control. At ERBB2, the “ERBB2 binding POC” value is listed as 100% of control. In addition, the “ERBB3 binding POC” value on ERBB3 is 88% of control. For the same molecule, the “ERBB4 binding POC” value on ERBB4 was 96% of control. Further, the “JAK3 binding POC” value in data set [1] is 89% of control. Besides, at MKK7, the “MKK7 binding POC” value is 100% of control. Besides, in the data set on patients with R/R MCL, the CR was 27.4%, the PR is given as 53.8% and the overall response rate is reported as 81.1%. In addition, the “JNK1 (MAPK8) POC” value at JNK1 (MAPK8) was 100% of control. For the same molecule, on JNK2 (MAPK9), the “JNK2 (MAPK9) POC” value is 100% of control. On JNK3 (MAPK10), the “JNK3 (MAPK10) POC” value is 100% of control.

Consider `C=CC(=O)N1CCC[C@@H](n2nc(-c3ccc(Oc4ccccc4)cc3)c3c(N)ncnc32)C1` [Ibrutinib], for which the “TEC binding POC” value at TEC is on record as 5.9% of control. Besides, the “TXK binding POC” value at TXK was 0.5% of control. Besides, the “BLK binding POC” value on BLK is 0.25% of control. The “EGFR binding POC” value on EGFR is 0% of control. Moreover, the “ERBB2 binding POC” value at ERBB2 is recorded as 0.1% of control. The “ERBB3 binding POC” value at ERBB3 is 0.15% of control. The “ERBB4 binding POC” value at ERBB4 was 0% of control. The “MKK7 binding POC” value at MKK7 was 0.15% of control. For the same molecule, the IC50 in the data set on BTK C481S is […]; in the data set on BTK, […]. Further, on JNK1 (MAPK8), the “JNK1 (MAPK8) POC” value is 78% of control. For the same molecule, at JNK2 (MAPK9), the “JNK2 (MAPK9) POC” value is 78% of control.
